The values below come from patent US11213527B2, “Inhibitory effect of low molecular weight compound on cancer and fibrosis” (NATIONAL UNIVERSITY CORPORATION TOTTORI UNIVERSITY, priority 2014, dated 2022).

In this experiment the test system is liver fibrosis. The experiment in a line: Liver disease model mice (carbon tetrachloride-induced liver fibrosis). The settings on record: IC-2 10.6 or 21.2 mg/kg intraperitoneally 3 times a week for 4 weeks, vs vehicle. The format is in vivo, C57BL/6 male mice. As for the experimental part: First, 7-week-old C57BL/6 male mice (Japan SLC, Shizuoka, Japan) were subject to 1-week preparatory rearing. Among them, healthy mice were used. The mice were housed in an animal cage at a room temperature of 22±1° C. and a humidity of 50±5% throughout the preparatory rearing and experimental period and were given ad libitum access to food and water.
A microsyringe (ITO CORPORATION, Shizuoka, Japan) was used to intraperitoneally administer carbon tetrachloride (CCl4: Wako Pure Chemical Industries, Ltd., Osaka, Japan) at 0.2 ml/kg, 3 times a week, for 4, 6, or 8 weeks. Carbon tetrachloride was dissolved into cone oil (Wako Pure Chemical Industries, Ltd.) at a concentration of 10%. The resulting solution was used. After this carbon tetrachloride solution was administered for 4 weeks, the mice were divided into a vehicle administration group, a glycyrrhizin administration group, an ICG-001 administration group, and an IC-2 administration group. Then, a microsyringe was used to intraperitoneally administer, 3 times a week for 4 weeks, carbon tetrachloride and a drug solution prepared in accordance with the following process. Note that the carbon tetrachloride and the drug solution were alternately administered with one-day interval.
Glycyrrhizin (TOKYO CHEMICAL INDUSTRY CO., LTD., Tokyo, Japan) was dissolved in physiological saline. The solution was prepared at a concentration of 30 mg/ml while the pH was adjusted to 7.0 with 4 M NaOH liquid. IC-2 and ICG-001 (AdooQ BioScience, California, USA) were each dissolved in a WellSolve (Celeste Corporation, Tokyo, Japan) at a concentration of 40 mg/ml and 10 mg/ml, respectively. Next, the mixture was heated for 10 min in a hot water bath at 60° C. and was then completely dissolved. A 9-fold volume of physiological saline was added to the WellSolve solution in which the above drugs had each been dissolved. […] Note that an IC-2 dosage was determined on the basis of an effective concentration in vitro. […]

In the case of `O=C1[C@H](Cc2ccccc2)N2C(=O)CCN(C(=O)NCc3ccccc3)[C@H]2CN1Cc1cccc2ccccc12` [IC-2], the “fibrosis area (Sirius red staining)” value was “a decrease in the fibrosis area was detected”. The content of hydroxyproline result (glycyrrhizin 150 mg/kg) is reported as “a large decrease was observed”.
